Measurements reported in PubChem BioAssay (NCI).
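Results reflect a 48-hour exposure of cells in 96-well plates to compound at five concentrations. At the GI50, growth is halved. At the TGI there is no net growth.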

Tests used:
Test in all cases: NCI anticancer screen, dose series, 48 h
786-0 renal = tested on: 786-0 renal
A498 renal = tested on: A498 renal
A549 NSCLC = tested on: A549 NSCLC
ACHN renal = tested on: ACHN renal
BT-549 breast = tested on: BT-549 breast
CAKI-1 renal = tested on: CAKI-1 renal
CCRF-CEM leukemia = tested on: CCRF-CEM leukemia
COLO 205 colon = tested on: COLO 205 colon
DU-145 prostate = tested on: DU-145 prostate
EKVX NSCLC = tested on: EKVX NSCLC
HCC-2998 colon = tested on: HCC-2998 colon
HCT-116 colon = tested on: HCT-116 colon
HCT-15 colon = tested on: HCT-15 colon
HL-60(TB) leukemia = tested on: HL-60(TB) leukemia
HOP-62 NSCLC = tested on: HOP-62 NSCLC
HOP-92 NSCLC = tested on: HOP-92 NSCLC
HS 578T breast = tested on: HS 578T breast
HT29 colon = tested on: HT29 colon
IGROV1 ovarian = tested on: IGROV1 ovarian
K-562 leukemia = tested on: K-562 leukemia
KM12 colon = tested on: KM12 colon
LOX IMVI melanoma = tested on: LOX IMVI melanoma
M14 melanoma = tested on: M14 melanoma
MALME-3M melanoma = tested on: MALME-3M melanoma
MCF7 breast = tested on: MCF7 breast
MDA-MB-231 breast = tested on: MDA-MB-231 breast
MDA-MB-435 = tested on: MDA-MB-435
MOLT-4 leukemia = tested on: MOLT-4 leukemia
NCI-H226 lung = tested on: NCI-H226 lung
NCI-H23 lung = tested on: NCI-H23 lung
NCI-H460 lung = tested on: NCI-H460 lung
NCI-H522 lung = tested on: NCI-H522 lung
OVCAR-3 ovarian = tested on: OVCAR-3 ovarian
OVCAR-4 ovarian = tested on: OVCAR-4 ovarian
OVCAR-5 ovarian = tested on: OVCAR-5 ovarian
OVCAR-8 ovarian = tested on: OVCAR-8 ovarian
PC-3 prostate = tested on: PC-3 prostate
RPMI-8226 leukemia = tested on: RPMI-8226 leukemia
RXF 393 renal = tested on: RXF 393 renal
SF-268 CNS = tested on: SF-268 CNS
SF-295 CNS = tested on: SF-295 CNS
SF-539 CNS = tested on: SF-539 CNS
SK-MEL-2 melanoma = tested on: SK-MEL-2 melanoma
SK-MEL-28 melanoma = tested on: SK-MEL-28 melanoma
SK-MEL-5 melanoma = tested on: SK-MEL-5 melanoma
SK-OV-3 ovarian = tested on: SK-OV-3 ovarian
SN12C renal = tested on: SN12C renal
SNB-19 CNS = tested on: SNB-19 CNS
SNB-75 CNS = tested on: SNB-75 CNS
SR leukemia = tested on: SR leukemia
SW-620 colon = tested on: SW-620 colon
T-47D breast = tested on: T-47D breast
TK-10 renal = tested on: TK-10 renal
U251 CNS = tested on: U251 CNS
UACC-257 melanoma = tested on: UACC-257 melanoma
UACC-62 melanoma = tested on: UACC-62 melanoma
UO-31 renal = tested on: UO-31 renal

O=c1ccc(N=Nc2ccccc2)ccc1Cl
GI50 (786-0 renal): 3.83 µM | TGI (786-0 renal): 13.6 µM | GI50 (A498 renal): > 100 µM | TGI (A498 renal): > 100 µM | GI50 (A549 NSCLC): 17 µM | TGI (A549 NSCLC): 38.7 µM | GI50 (ACHN renal): 3.11 µM | TGI (ACHN renal): 10.2 µM | GI50 (BT-549 breast): 3.22 µM | TGI (BT-549 breast): 9.77 µM | GI50 (CAKI-1 renal): 13 µM | TGI (CAKI-1 renal): 25.8 µM | GI50 (CCRF-CEM leukemia): 1.39 µM | TGI (CCRF-CEM leukemia): 26.7 µM | GI50 (COLO 205 colon): 5.07 µM | TGI (COLO 205 colon): 18.4 µM | GI50 (DU-145 prostate): 15.5 µM | TGI (DU-145 prostate): 29 µM | GI50 (EKVX NSCLC): 11.5 µM | TGI (EKVX NSCLC): 29.1 µM | GI50 (HCC-2998 colon): 12.2 µM | TGI (HCC-2998 colon): 26.4 µM | GI50 (HCT-116 colon): 2.61 µM | TGI (HCT-116 colon): 9.49 µM | GI50 (HCT-15 colon): 2.53 µM | TGI (HCT-15 colon): 8.07 µM | GI50 (HL-60(TB) leukemia): 18.1 µM | TGI (HL-60(TB) leukemia): 87.1 µM | GI50 (HOP-62 NSCLC): 31.3 µM | TGI (HOP-62 NSCLC): > 100 µM | GI50 (HOP-92 NSCLC): 13.9 µM | TGI (HOP-92 NSCLC): 28.1 µM | GI50 (HS 578T breast): 21.4 µM | TGI (HS 578T breast): 62.7 µM | GI50 (HT29 colon): 5.62 µM | TGI (HT29 colon): 19.2 µM | GI50 (IGROV1 ovarian): 13.8 µM | TGI (IGROV1 ovarian): 27.4 µM | GI50 (K-562 leukemia): 1 µM | TGI (K-562 leukemia): > 100 µM | GI50 (KM12 colon): 12.7 µM | TGI (KM12 colon): 32.4 µM | GI50 (LOX IMVI melanoma): 2.24 µM | TGI (LOX IMVI melanoma): 6.74 µM | GI50 (M14 melanoma): 2.63 µM | TGI (M14 melanoma): 12.7 µM | GI50 (MALME-3M melanoma): 3.57 µM | TGI (MALME-3M melanoma): 12.4 µM | GI50 (MCF7 breast): 3.16 µM | TGI (MCF7 breast): 18 µM | GI50 (MDA-MB-231 breast): 9.01 µM | TGI (MDA-MB-231 breast): 21.2 µM | GI50 (MDA-MB-435): 14.8 µM | TGI (MDA-MB-435): 29.6 µM | GI50 (MOLT-4 leukemia): 0.749 µM | TGI (MOLT-4 leukemia): > 100 µM | GI50 (NCI-H226 lung): 19.6 µM | TGI (NCI-H226 lung): 66.1 µM | GI50 (NCI-H23 lung): 6.25 µM | TGI (NCI-H23 lung): 21.9 µM | GI50 (NCI-H460 lung): 15.4 µM | TGI (NCI-H460 lung): 37.7 µM | GI50 (NCI-H522 lung): 1.8 µM | TGI (NCI-H522 lung): 3.67 µM | GI50 (OVCAR-3 ovarian): 4.39 µM | TGI (OVCAR-3 ovarian): 15.6 µM | GI50 (OVCAR-4 ovarian): 12.8 µM | TGI (OVCAR-4 ovarian): 25.9 µM | GI50 (OVCAR-5 ovarian): 15.4 µM | TGI (OVCAR-5 ovarian): 29.3 µM | GI50 (OVCAR-8 ovarian): 3.49 µM | TGI (OVCAR-8 ovarian): 13.1 µM | GI50 (PC-3 prostate): 5.16 µM | TGI (PC-3 prostate): 18.7 µM | GI50 (RPMI-8226 leukemia): 3.76 µM | TGI (RPMI-8226 leukemia): 27.4 µM | GI50 (RXF 393 renal): 8.19 µM | TGI (RXF 393 renal): 22.1 µM | GI50 (SF-268 CNS): 18.8 µM | TGI (SF-268 CNS): 43.5 µM | GI50 (SF-295 CNS): 18.1 µM | TGI (SF-295 CNS): 46.6 µM | GI50 (SF-539 CNS): 5.9 µM | TGI (SF-539 CNS): 18.3 µM | GI50 (SK-MEL-2 melanoma): 13.9 µM | TGI (SK-MEL-2 melanoma): 29.8 µM | GI50 (SK-MEL-28 melanoma): 14.5 µM | TGI (SK-MEL-28 melanoma): 27.9 µM | GI50 (SK-MEL-5 melanoma): 15.7 µM | TGI (SK-MEL-5 melanoma): 31.7 µM | GI50 (SK-OV-3 ovarian): 48 µM | TGI (SK-OV-3 ovarian): > 100 µM | GI50 (SN12C renal): 12.9 µM | TGI (SN12C renal): 25.7 µM | GI50 (SNB-19 CNS): 26.2 µM | TGI (SNB-19 CNS): 91.4 µM | GI50 (SNB-75 CNS): 15.9 µM | TGI (SNB-75 CNS): 92.3 µM | GI50 (SR leukemia): 1.73 µM | TGI (SR leukemia): > 100 µM | GI50 (SW-620 colon): 3.14 µM | TGI (SW-620 colon): 12.8 µM | GI50 (T-47D breast): 3.14 µM | TGI (T-47D breast): 26.4 µM | GI50 (TK-10 renal): 13.7 µM | TGI (TK-10 renal): 26.6 µM | GI50 (U251 CNS): 2.78 µM | TGI (U251 CNS): 9.29 µM | GI50 (UACC-257 melanoma): 11.5 µM | TGI (UACC-257 melanoma): 24 µM | GI50 (UACC-62 melanoma): 12.7 µM | TGI (UACC-62 melanoma): 25.6 µM | GI50 (UO-31 renal): 7.39 µM | TGI (UO-31 renal): 20.7 µM
